Reference: patent US20090155387A1, “STABLE PHARMACEUTICAL COMPOSITION COMPRISING BETA-LACTAM ANTIBIOTIC AND ION-CHELATING AGENT” (priority 2006, published 2009)

Assay: Amounts of β-lactam antibiotic, β-lactamase inhibitor and aminoglycoside antibiotic in solution over time (reverse-phase LC/HPLC)
Format: physicochemical
Description: The amounts of β-lactam antibiotics and β-lactamase inhibitor were determined using C18 reverse-phase LC and UV-VIS detector (Tianjin […] Co., Ltd., analysis method No. HM-K-03). The content of aminoglycoside antibiotics was measured using reverse-phase HPLC and evaporation-light-scattering detector (ELSD detector) (Tianjin […] Co., Ltd., analysis method No. HM-K-08). The amount of antibiotic component at each time point was expressed as a percentage with respect to the amount at the initial time. The relative amount of each antibiotic component in the composition at each time point was expressed as peak area ratio with respect to the corresponding peak area of an external standard.

[1] = in Example 17 solution, pH 6.5, room temperature, 0 h
[2] = in Example 17 solution, pH 6.5, room temperature, 1 h
[3] = in Example 17 solution, pH 6.5, room temperature, 2 h
[4] = in Example 17 solution, pH 6.5, room temperature, 4 h
[5] = in Example 17 solution, pH 6.5, room temperature, 6 h
[6] = in Example 17 solution, pH 6.5, room temperature, 8 h
[7] = in Example 18 solution (2.5% fructose), pH 6.5, room temperature, 0 h
[8] = in Example 18 solution (2.5% fructose), pH 6.5, room temperature, 1 h
[9] = in Example 18 solution (2.5% fructose), pH 6.5, room temperature, 2 h

CCN[C@@H]1C[C@H](N)[C@@H](O[C@H]2O[C@H](CN)CC[C@H]2N)[C@H](O)[C@H]1O[C@H]1OC[C@](C)(O)[C@H](NC)[C@H]1O [Etimicin]
amount (percentage of initial amount) (in Example 6 solution, pH 6.5, room temperature, 0 h): 108.9%
amount (percentage of initial amount) (in Example 6 solution, pH 6.5, room temperature, 1 h): 100.2%
amount (percentage of initial amount) (in Example 6 solution, pH 6.5, room temperature, 2 h): 100.5%
amount (percentage of initial amount) (in Example 6 solution, pH 6.5, room temperature, 4 h): 100.4%
amount (percentage of initial amount) (in Example 6 solution, pH 6.5, room temperature, 6 h): 100.4%
amount (percentage of initial amount) (in Example 6 solution, pH 6.5, room temperature, 8 h): 97.50%
amount (percentage of initial amount) (in Example 13 solution (Example 12 solution + etimicin sulfate), 0 h): 100%
amount (percentage of initial amount) (in Example 13 solution (Example 12 solution + etimicin sulfate), 1 h): 98.8%
amount (percentage of initial amount) (in Example 13 solution (Example 12 solution + etimicin sulfate), 2 h): 97.5%
amount (percentage of initial amount) (in Example 13 solution (Example 12 solution + etimicin sulfate), 4 h): 98.4%
amount (percentage of initial amount) (in Example 13 solution (Example 12 solution + etimicin sulfate), 6 h): 95.6%
amount (percentage of initial amount) (in Example 13 solution (Example 12 solution + etimicin sulfate), 8 h): 92.8%
amount (percentage of initial amount) [1]: 100.1%
amount (percentage of initial amount) [2]: 100.4%
amount (percentage of initial amount) [3]: 99.31%
amount (percentage of initial amount) [4]: 99.56%
amount (percentage of initial amount) [5]: 99.61%
amount (percentage of initial amount) [6]: 99.25%
amount (percentage of initial amount) [7]: 100.1%
amount (percentage of initial amount) [8]: 100.6%
amount (percentage of initial amount) [9]: 99.79%
amount (percentage of initial amount) (in Example 23 solution (2.5% fructose), pH 6.75, room temperature, 0 h): 104.5%
amount (percentage of initial amount) (in Example 23 solution (2.5% fructose), pH 6.75, room temperature, 1 h): 99.13%
amount (percentage of initial amount) (in Example 23 solution (2.5% fructose), pH 6.75, room temperature, 2 h): 103.3%
amount (percentage of initial amount) (in Example 23 solution (2.5% fructose), pH 6.75, room temperature, 4 h): 98.75%
amount (percentage of initial amount) (in Example 23 solution (2.5% fructose), pH 6.75, room temperature, 6 h): 101.6%
amount (percentage of initial amount) (in Example 23 solution (2.5% fructose), pH 6.75, room temperature, 8 h): 96.42%
amount (percentage of initial amount) (in Example 26 solution (2.5% fructose), pH 6.75, room temperature, 0 h): 94.69%
amount (percentage of initial amount) (in Example 26 solution (2.5% fructose), pH 6.75, room temperature, 1 h): 102.9%
amount (percentage of initial amount) (in Example 26 solution (2.5% fructose), pH 6.75, room temperature, 2 h): 109.3%
amount (percentage of initial amount) (in Example 26 solution (2.5% fructose), pH 6.75, room temperature, 4 h): 108.8%
amount (percentage of initial amount) (in Example 26 solution (2.5% fructose), pH 6.75, room temperature, 6 h): 109.6%
amount (percentage of initial amount) (in Example 26 solution (2.5% fructose), pH 6.75, room temperature, 8 h): 105.2%

CC1(C)S[C@@H]2[C@H](NC(=O)[C@H](NC(=O)N3CCN(S(C)(=O)=O)C3=O)c3ccccc3)C(=O)N2[C@H]1C(=O)O [Mezlocillin sodium]
amount (percentage of initial amount) (in Example 11 solution (pH 6.0) from freeze-dried powder stored 7 days at 0° C., redissolved, 0 h): 97.11%
amount (percentage of initial amount) (in Example 11 solution (pH 6.0) from freeze-dried powder stored 7 days at 0° C., redissolved, 1 h): 90.83%
amount (percentage of initial amount) (in Example 11 solution (pH 6.0) from freeze-dried powder stored 7 days at 0° C., redissolved, 2 h): 98.18%
amount (percentage of initial amount) (in Example 11 solution (pH 6.0) from freeze-dried powder stored 7 days at 0° C., redissolved, 4 h): 93.69%
amount (percentage of initial amount) (in Example 11 solution (pH 6.0) from freeze-dried powder stored 7 days at 0° C., redissolved, 6 h): 91.23%
amount (percentage of initial amount) (in Example 11 solution (pH 6.0) from freeze-dried powder stored 7 days at 0° C., redissolved, 8 h): 94.39%
amount (percentage of initial amount) [1]: 116.6%
amount (percentage of initial amount) [2]: 94.83%
amount (percentage of initial amount) [3]: 91.86%
amount (percentage of initial amount) [4]: 91.96%
amount (percentage of initial amount) [5]: 91.52%
amount (percentage of initial amount) [6]: 98.56%
amount (percentage of initial amount) [7]: 96.48%
amount (percentage of initial amount) [8]: 95.90%
amount (percentage of initial amount) [9]: 71.70%
amount (percentage of initial amount) (in Example 18 solution (2.5% fructose), pH 6.5, room temperature, 4 h): 91.78%
amount (percentage of initial amount) (in Example 18 solution (2.5% fructose), pH 6.5, room temperature, 6 h): 93.08%
amount (percentage of initial amount) (in Example 18 solution (2.5% fructose), pH 6.5, room temperature, 8 h): 97.69%
